The values below come from patent US7001770B1, “Calpain inhibitors and their applications” (priority 1998, dated 2006).

Square brackets hold non-standard residues; d marks the D form. Peptide text beside a SMILES is read from it. Nle = CCCC[C@H](N)C(=O)O

One assay has as its system CTL response. Description: In vivo CTL response to recombinant adenoviral vector (51Cr release). Set-up: species or system C57BL/6 mice. To be noted: for CTL response to the adenoviral vector: 60 mg/Kg or 120 mg/Kg calpain inhibitor 1, 9×10^9 particles/animal iv, spleens day 10. The protocol: FIG. 11 is a graphical results of the cytotoxicity assay of CTL against ACN53 transduced EL-4 targets in C57/B16 mice injected with 60 mg/Kg (A) or 120 mg/Kg (♦) calpain inhibitor 1 in combination with ACN53 as more fully described in Example 7 herein. Percent lysis is plotted on the vertical axis and time on the horizontal axis. The ACN53 alone is represented by the circles (●) and the naive control level is represented by the squares (▪).
The applicants hypothesized that the combined effect on MHC Class 1 presentation and apoptosis of non-transduced will reduce the immune response to the viral vectors. This was confirmed in a in vivo mouse model in substantial accordance with the teaching of example […] herein. The results are shown in the FIG. 8 of the attached drawings.
C57BU6 mice (2 mice per dose) were injected intravenously with 9×10^9 particles/animal (iv/200 μl) of a recombinant adenoviral vector encoding the βgal reporter gene under control of the CMV promoter. Naive mice were employed as controls. The spleens were harvested at day 10 for immunological analysis. Livers were harvested for analysis of β-gal transgene expression. Cells were be dispersed to a single cell suspension and washed 3 times. The cells were be resuspended complete RPMI-10 (RPMI+10% FCS, 2ME (5 μM), glutamine, Na pyruvate, Pen/Strep). Responder CTL cells were seeded in 24-well plates at 8×10^6 cells per well in 1.5 ml RPMI-5%. The responder CTL cells were restimulated by adding syngeneic (C57BL/6) spleen cells that were transduced for 6 hours with 2×10^10 BGCG particles/ml and then mitomycin treated to inhibit proliferation and/or activation of stimulator cell populations. The responder CTL were co-cultured with the stimulator cells at 37° C. in a humidified incubator for seven days. […] The Effector CTL cells were harvested, washed 2 times and counted to enumerate the CTL effector cells. […] The Effector CTL cells were co-cultivated with the target cells for 6 hours and the specific ^51Cr release were determined by counting harvested supernates (100 μl) in the γ counter.

For assay [1], the system named is JC (mouse mammary carcinoma, p53 mutant) cells. Description: Rodent cancer model, flank tumors. The class given is in vivo, mice. To be noted: calpain inhibitor alone, 60 mg/kg intraperitoneal. The protocol: The in vitro results presented above were confirmed in a rodent cancer model. Briefly, healthy immune competent mice were injected with JC (mouse mammary carcinoma, p53 mutant) cells and tumors were permitted to form. This is a particularly rigorous model as JC cells are particularly difficult to infect and the mouse is an immunocompetent mouse capable of producing an immune response to the human adenovirus and/or the human p53 transgene. After 2 weeks, flank tumors were present in all animals. Calpain inhibitor was administered via intraperitoneal injection to a concentration of approximately 60 mg/kg approximately 24 hours prior to administration of the recombinant rAd-p53 virus. Appropriate control viruses and solutions were employed. The mice were injected with 1×10^10 particles of rAd-p53 per injection intratumorally in combination with intraperitoneally injected CI-1 at a concentration of 60 mg/kg for a period of 5 days, 2 days off and then for 5 more days. Tumor growth/regression was evaluated at Day 4, Day 8 and Day 11 post-treatment (FIGS. 12 A,B and C respectively). In all instances the rate of decrease in tumor growth was at least 40% reduction in fold increase in tumor volume in mice treated with calpain inhibitor 1 in addition to FTCB, in comparison with the mice treated with the FTCB vector alone.

Assay [2] deals with p53 and p21 protein levels in HLF cells. Description: Western blot of p53 and p21 levels. The class given is cell-based. To be noted: 17 hours. The protocol: (§1) FIG. 5 contains the results of Western blots measuring the levels of p53 and p21 in rAd-p53 infected cells in the presence of varying concentrations of CI-1. Above each lane is a “+” of “−” which indicates if the cells were pulsed with 1×10^9 rAd-p53 for one hour (+) or not (−). The row of numbers below indicates the μM concentration of CI-1 to which the cells were exposed at 17 hours post-infection. The upper row of chemiluminescent signals provides the levels of p53 while the lower row of chemiluminescent signals provides the levels of p21. […] When 5 μM CI-1 was added with rAd-p53, the levels of p53 increased two fold, as quantitated on NIH imaging.
(§2) At 17 hours post treatment, cells were lysed in protein lysis buffer (50 mM tris, 250 mM NaCl, 50 mM NaF, 5 mM EDTA and 0.1% NP-40 with 1 mM PMSF). Cell lysates were subjected to electrophoresis. 10 μg of protein was added per lane on a 12% polyacrylamide gel and transfered onto nitrocellulose membranes. The membranes were subjected to western blot analysis using antibodies specific for p53 or p21 (Calbiochem, p53 antibody Ab-6, and p21 antibody Ab-7). HRP-conjugated secondary antibody (Amersham) was added for one hour at which time the blots were washed. Blots were developed using enhanced chemiluminescence detection system (Amersham) and quantitated using NIH imaging analysis.
In general terms: In western blotting, separated proteins are transferred to a membrane and probed.

Assay [3] relates to p53 and p21 protein levels in RKO cells. The experiment in a line: Western blot of p53 and p21 levels. The class given is cell-based. To be noted: 17 hours. The protocol:
as §1, §2

The test system of assay [4] is beta-galactosidase transgene. The experiment in a line: In vivo transgene RNA in liver by RT-PCR. Set-up: species or system C57BL/6 mice. To be noted: CI-1 60 mg/kg ip, three administrations; 9×10^9 particle/ml rAd beta-galactosidase tail vein; seen in one third of the mice. The protocol:
[…] C57BL/6 mice were treated with 60 mg/kg injected intraperitoneally on day minus one. Three control mice were injected with CI-1 solvent only (PBS/0.02% DMSO). On day zero, all mice were tail vein injected with 9×10^9 particle/ml with a recombinant adenovirus encoding the beta-galactosidase transgene. CI-1 or solvent was administed one additional time on day one for three total intraperitoneal administrations of CI-1. Mice were sacrificed three days and nine days later (four-and ten days post-infection respectively), and livers were harvested for quantitative PCR and RT-PCR to detect viral DNA and viral transcript (b-galactosidase) respectively. One third of the miceexpressed a high level of transgene RNA in response to calpain inhibitor 1 treatment, as compared with virus alone.

Take `CCCC[C@@H](C=O)NC(=O)[C@H](CC(C)C)NC(=O)[C@H](CC(C)C)NC(C)=O` [CI-1, N-acetyl-leu-leu-norleucinal] (Ac-Leu-Leu-[Nle]-aldehyde): the “CTL response to the adenoviral vector” value was “significant inhibition” in the assay on CTL response and “substantially reduced” with CTL response (listed as calpain inhibitor 1). In addition, the “relative number of CTL lytic-units (effector to target ratio giving 25% killing)” value with CTL response (treatment with calpain inhibitor CI-1, BGCG injected mice) is listed as “greater than a five-fold decrease”. Also, the antitumor effects result in assay [1] is listed as “significant antitumor effects”. The “increase in levels of p53 (NIH imaging)” value in assay [2] (5 μM CI-1 added with 1×10^9 rAd-p53, versus rAd-p53 alone) was “two fold”. Besides, in assay [2] (10 μM CI-1 added with 1×10^9 rAd-p53), the “increase in levels of p53 and p21” value was “approximately three fold”. In assay [3] (5 μM CI-1 with 1×10^9 rAd-p53), the “increase in p53 and p21 levels” value is “two fold increase”. The “increase in p53 levels over rAd-p53 alone” value in assay [3] (10 μM CI-1 with 1×10^9 rAd-p53) is on record as “about a five fold increase”. The “level of transgene RNA in liver compared with virus alone” value in assay [4] is “Approximately a six fold higher level”.
